The source of these data is ChEMBL document CHEMBL3425423, “Hydroxy tricyclic 1,5-naphthyridinone oxabicyclooctane-linked novel bacterial topoisomerase inhibitors as broad-spectrum antibacterial agents-SAR of RHS moiety (Part-3)” (Bioorg Med Chem Lett, 2015).

Converted amounts (≈) assume the structure as drawn.

As usually defined, the IC50 is the point on the concentration scale where inhibition reaches its midpoint. A lower IC50 goes with inhibition by little substance.

In one experiment the test system is Acinetobacter baumannii. Description: Antibacterial activity against Acinetobacter baumannii IID876. Format: functional. The conditions noted are these: Acinetobacter baumannii, IID876; read-out: MIC.
Experiment [1] concerns the target T1, Voltage-gated inwardly rectifying potassium channel KCNH2 (Homo sapiens, UniProt Q12809). Description: Inhibition of human ERG expressed in CHO cells measured over 5 mins by patch clamp assay. (In patch-clamp work, channel activity is measured electrically.)
The test system of experiment [2] is Staphylococcus aureus. Description: Ratio of MIC for quinolone-resistant Staphylococcus aureus MS5935 to MIC for quinolone-sensitive Staphylococcus aureus. Format: functional.
For the next experiment, the system named is Moraxella catarrhalis. Description: Antibacterial activity against Moraxella catarrhalis ATCC 25238. Type of experiment: functional. The settings on record: Moraxella catarrhalis, ATCC 25238; read-out: MIC.
Experiment [3] concerns the target T1, Voltage-gated inwardly rectifying potassium channel KCNH2. Description: Displacement of MK499 from human ERG.
In a further experiment the test system is Enterococcus faecalis. Description: Antibacterial activity against Enterococcus faecalis ATCC 29212. Format: functional. The conditions noted are these: Enterococcus faecalis, ATCC 29212; read-out: MIC.
Experiment [4] concerns Staphylococcus aureus. Description: Antibacterial activity against Staphylococcus aureus Smith. Type of experiment: functional.
The test system of a further experiment is Enterococcus faecium. Description: Antibacterial activity against VanA-type vancomycin-resistant Enterococcus faecium A2373. Type of experiment: functional. The conditions noted are these: Enterococcus faecium, A2373; read-out: MIC.
For a further experiment, the system named is Streptococcus pneumoniae. Description: Antibacterial activity against Streptococcus pneumoniae IID554. Format: functional.
A further experiment relates to Pseudomonas aeruginosa. Description: Antibacterial activity against Pseudomonas aeruginosa PAO1. The conditions noted are these: Pseudomonas aeruginosa, PAO1; read-out: MIC. Format: functional.
Another experiment has as its system Haemophilus influenzae. Description: Antibacterial activity against Haemophilus influenzae ATCC 49247. Type of experiment: functional. The settings on record: Haemophilus influenzae, ATCC 49247; read-out: MIC.
In the next experiment the test system is Escherichia coli. Description: Antibacterial activity against Escherichia coli ATCC 25922. Format: functional. The settings on record: Escherichia coli, ATCC 25922; read-out: MIC.
The mark [5] stands for this setting: Staphylococcus aureus, Smith, read-out: MIC.
[6] abbreviates: Streptococcus pneumoniae, IID554, read-out: MIC.

T1 sequence (Q12809 whole entry): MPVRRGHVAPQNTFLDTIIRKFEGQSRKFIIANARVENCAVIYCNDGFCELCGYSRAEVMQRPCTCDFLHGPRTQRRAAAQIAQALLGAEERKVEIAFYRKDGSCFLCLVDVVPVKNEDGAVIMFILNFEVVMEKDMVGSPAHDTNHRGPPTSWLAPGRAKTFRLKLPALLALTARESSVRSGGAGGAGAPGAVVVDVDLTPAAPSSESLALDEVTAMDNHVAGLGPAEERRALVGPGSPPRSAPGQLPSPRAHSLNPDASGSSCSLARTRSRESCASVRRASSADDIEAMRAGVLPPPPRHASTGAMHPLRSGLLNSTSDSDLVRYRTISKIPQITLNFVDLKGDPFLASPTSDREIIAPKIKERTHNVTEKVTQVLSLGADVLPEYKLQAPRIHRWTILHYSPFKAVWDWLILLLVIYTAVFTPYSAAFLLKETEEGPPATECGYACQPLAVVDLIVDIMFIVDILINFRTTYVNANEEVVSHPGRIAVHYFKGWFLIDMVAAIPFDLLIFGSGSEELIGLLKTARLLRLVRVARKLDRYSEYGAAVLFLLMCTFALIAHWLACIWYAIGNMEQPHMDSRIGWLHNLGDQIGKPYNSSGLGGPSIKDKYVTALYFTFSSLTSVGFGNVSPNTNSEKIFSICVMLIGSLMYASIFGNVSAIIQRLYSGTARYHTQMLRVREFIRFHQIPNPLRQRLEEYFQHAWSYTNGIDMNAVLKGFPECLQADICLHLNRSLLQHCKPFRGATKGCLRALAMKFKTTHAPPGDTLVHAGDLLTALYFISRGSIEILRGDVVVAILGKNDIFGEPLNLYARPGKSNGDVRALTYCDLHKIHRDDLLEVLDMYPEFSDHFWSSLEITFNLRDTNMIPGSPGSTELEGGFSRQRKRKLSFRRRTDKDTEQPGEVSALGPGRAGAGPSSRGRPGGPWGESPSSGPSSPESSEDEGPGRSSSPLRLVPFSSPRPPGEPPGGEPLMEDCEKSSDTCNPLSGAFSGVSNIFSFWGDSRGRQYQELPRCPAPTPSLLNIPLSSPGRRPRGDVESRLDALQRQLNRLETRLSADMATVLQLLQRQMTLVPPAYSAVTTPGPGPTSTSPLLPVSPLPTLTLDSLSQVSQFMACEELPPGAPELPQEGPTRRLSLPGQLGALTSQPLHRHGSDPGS

As to `O=c1ccc2ncc(F)c3c2n1C[C@@]3(O)CC12CCC(NCc3cc4c(cn3)S(=O)(=O)CCO4)(CC1)CO2`, the MIC in the experiment with Acinetobacter baumannii turned out to be 32 µg/mL (≈ 59 µM); in the experiment with Moraxella catarrhalis it was 32 µg/mL (≈ 59 µM); in the experiment on Enterococcus faecalis, 32 µg/mL (≈ 59 µM); with Staphylococcus aureus [4] (setting [5]), 8 µg/mL (≈ 14.7 µM); with Enterococcus faecium it was 32 µg/mL (≈ 59 µM); with Streptococcus pneumoniae (setting [6]), 32 µg/mL (≈ 59 µM). The MIC in the experiment on Pseudomonas aeruginosa, in the experiment with Haemophilus influenzae and in the experiment on Escherichia coli was 32 µg/mL (≈ 59 µM) throughout. For the same compound, the IC50 in [1] and in experiment [3] was more than 60 µM throughout. Also, the Ratio with Staphylococcus aureus [2] is reported as less than 4.
For `O=C1COc2cnc(CNC34CCC(C[C@]5(O)Cn6c(=O)ccc7ncc(F)c5c76)(CC3)OC4)nc2N1`, the MIC in the experiment with Acinetobacter baumannii worked out at 32 µg/mL (≈ 62.9 µM); in the experiment with Enterococcus faecalis, 4 µg/mL (≈ 7.87 µM); in the experiment with Staphylococcus aureus [4] (setting [5]) it was 0.5 µg/mL (≈ 0.983 µM); with Enterococcus faecium, 16 µg/mL (≈ 31.5 µM); in the experiment with Streptococcus pneumoniae (setting [6]) it was 2 µg/mL (≈ 3.93 µM); with Pseudomonas aeruginosa, 16 µg/mL (≈ 31.5 µM). In the experiment with Escherichia coli, the MIC turned out to be 8 µg/mL (≈ 15.7 µM). For the same compound, in experiment [1], 30 µM corresponded to half-maximal inhibition (IC50). Also, the Ratio in the experiment with Staphylococcus aureus [2] was less than 4.
As for `O=c1ccc2ncc(F)c3c2n1C[C@@]3(O)CC12CCC(NCc3cc4c(cn3)OCCS4(=O)=O)(CC1)CO2`, the MIC was 32 µg/mL (≈ 59 µM) in the experiment with Acinetobacter baumannii; 32 µg/mL (≈ 59 µM) in the experiment with Moraxella catarrhalis; 32 µg/mL (≈ 59 µM) with Enterococcus faecalis; 8 µg/mL (≈ 14.7 µM) in the experiment with Staphylococcus aureus [4] (setting [5]); 32 µg/mL (≈ 59 µM) in the experiment with Enterococcus faecium; 4 µg/mL (≈ 7.37 µM) with Streptococcus pneumoniae (setting [6]). The MIC in the experiment with Pseudomonas aeruginosa, in the experiment on Haemophilus influenzae and in the experiment on Escherichia coli was 32 µg/mL (≈ 59 µM) each time. Moreover, the IC50 in experiment [1] and in [3] was more than 60 µM each time. The Ratio in the experiment with Staphylococcus aureus [2] is reported as less than 4.
`CC1COc2cnc(CNC34CCC(C[C@]5(O)Cn6c(=O)ccc7ncc(F)c5c76)(CC3)OC4)cc2O1` (stereo in doubt; 21): the MIC stood at 32 µg/mL (≈ 62.9 µM) with Acinetobacter baumannii; 32 µg/mL (≈ 62.9 µM) with Moraxella catarrhalis; 16 µg/mL (≈ 31.5 µM) in the experiment with Enterococcus faecalis; 4 µg/mL (≈ 7.87 µM) with Staphylococcus aureus [4]; 32 µg/mL (≈ 62.9 µM) in the experiment with Enterococcus faecium; 2 µg/mL (≈ 3.93 µM) in the experiment on Streptococcus pneumoniae. Moreover, the MIC in the experiment with Pseudomonas aeruginosa, in the experiment on Haemophilus influenzae and in the experiment with Escherichia coli was 32 µg/mL (≈ 62.9 µM) each time.
`O=c1ccc2ncc(F)c3c2n1C[C@@]3(O)CC12CCC(NCc3cc4c(c(Cl)c3Cl)OCCO4)(CC1)CO2`: the MIC was found to be 32 µg/mL (≈ 56.9 µM) with Acinetobacter baumannii; 0.5 µg/mL (≈ 0.889 µM) with Moraxella catarrhalis; 8 µg/mL (≈ 14.2 µM) in the experiment with Enterococcus faecalis; 1 µg/mL (≈ 1.78 µM) in the experiment on Staphylococcus aureus [4] (setting [5]); 32 µg/mL (≈ 56.9 µM) in the experiment on Enterococcus faecium; 4 µg/mL (≈ 7.11 µM) with Streptococcus pneumoniae (setting [6]). Besides, the MIC in the experiment on Pseudomonas aeruginosa, with Haemophilus influenzae and with Escherichia coli was 32 µg/mL (≈ 56.9 µM) each time.
Take `Cc1cc2c(nc1CNC13CCC(C[C@]4(O)Cn5c(=O)ccc6ncc(F)c4c65)(CC1)OC3)NC(=O)CO2`: the MIC in the experiment with Acinetobacter baumannii stood at 4 µg/mL (≈ 7.67 µM); with Moraxella catarrhalis it was 0.5 µg/mL (≈ 0.959 µM); in the experiment on Enterococcus faecalis, 8 µg/mL (≈ 15.3 µM); in the experiment on Staphylococcus aureus [4] (setting [5]) it was 1.5 µg/mL (≈ 2.88 µM); in the experiment on Enterococcus faecium it was 32 µg/mL (≈ 61.4 µM); in the experiment with Streptococcus pneumoniae (setting [6]), 4 µg/mL (≈ 7.67 µM). The MIC in the experiment on Pseudomonas aeruginosa was 32 µg/mL (≈ 61.4 µM); in the experiment with Haemophilus influenzae, 4 µg/mL (≈ 7.67 µM); with Escherichia coli, 8 µg/mL (≈ 15.3 µM).
For `CC1COc2cc(CNC34CCC(C[C@]5(O)Cn6c(=O)ccc7ncc(F)c5c76)(CC3)OC4)ncc2O1` (stereo in doubt; 19), the MIC with Acinetobacter baumannii stood at 16 µg/mL (≈ 31.5 µM); in the experiment on Moraxella catarrhalis, 4 µg/mL (≈ 7.87 µM); with Enterococcus faecalis, 16 µg/mL (≈ 31.5 µM); with Staphylococcus aureus [4], 2 µg/mL (≈ 3.93 µM); in the experiment with Enterococcus faecium it was 32 µg/mL (≈ 62.9 µM); in the experiment with Streptococcus pneumoniae, 4 µg/mL (≈ 7.87 µM). Moreover, the MIC with Pseudomonas aeruginosa, with Haemophilus influenzae and in the experiment on Escherichia coli was 32 µg/mL (≈ 62.9 µM) in each case. Further, the Ratio with Staphylococcus aureus [2] is on record as less than 4.
Turning to `O=C1COc2cc(O)c(CNC34CCC(C[C@]5(O)Cn6c(=O)ccc7ncc(F)c5c76)(CC3)OC4)nc2N1`, the MIC with Acinetobacter baumannii is 32 µg/mL (≈ 61.1 µM); with Moraxella catarrhalis, 1 µg/mL (≈ 1.91 µM); with Enterococcus faecalis, 8 µg/mL (≈ 15.3 µM); with Staphylococcus aureus [4] (setting [5]) it was 2 µg/mL (≈ 3.82 µM); in the experiment with Enterococcus faecium, 16 µg/mL (≈ 30.6 µM); in the experiment with Streptococcus pneumoniae (setting [6]), 2 µg/mL (≈ 3.82 µM). The MIC in the experiment on Pseudomonas aeruginosa turned out to be 16 µg/mL (≈ 30.6 µM); in the experiment with Haemophilus influenzae, 4 µg/mL (≈ 7.64 µM); with Escherichia coli, 16 µg/mL (≈ 30.6 µM). The Ratio in the experiment with Staphylococcus aureus [2] is given as less than 4.
